US11192890B2, “FGFR kinase inhibitors and pharmaceutical uses” (AUCKLAND UNISERVICES LIMITED, priority 2017, dated 2021)
Where two headings read alike, the source gives them in different places.

Columns and labels:
[1] = biological target: T1, recombinant FGFR1 (C584S) kinase domain (Homo sapiens, UniProt P11362, C584S); test: FGFR1 (C584S) covalent binding protein mass spectrometry assay; details: protein:inhibitor 1:10, 37° C.
T1 construct: made in house; host or cells: pETDuet vector, IPTG induction in Terrific Broth (bacterial)
Method: The previously cloned C488A/C584S FGFR1 construct was modified by site-directed mutagenesis to provide a gene encoding the C584S FGFR1 kinase domain with the cysteine at amino acid C488 reinstated. Expression and purification of this protein followed the protocol described above but with the addition of 10% glycerol to all buffers and a change of buffer pH to a value of 8.5. Protein for mass spectrometry was concentrated to ˜40 mg/ml and was mixed 1:1 (v/v) with glycerol, and then frozen at −20° C. or flash cooled in liquid nitrogen and stored at −80° C. until needed.
Protein samples were buffer exchanged to remove glycerol (the final buffer comprised 20 mM Tris-HCl pH 8.5, 10% (v/v) glycerol, 20 mM NaCl, 5 mM EDTA, 2 mM TCEP) and were mixed with each inhibitor at 1:10 molar ratio (protein:inhibitor). Final protein concentration was 20 μM. […] Samples were mixed with 90 μL of 0.1% formic acid to quench the reaction followed by flash cooling in liquid nitrogen. Samples were stored at −80° C. until needed. All experiments were carried out in triplicate.
Samples were subjected to liquid chromatography mass spectrometry (LC-MS) to show mass changes attributable to irreversible inhibition. Mass spectrometry experiments were performed at the University of Auckland Mass Spectrometry Center using an electropspray QSTAR® XL ESI quadrupole Time-of-Flight (QToF) MS system (Applied Biosystems) operated in positive ionization mode. The instrument was calibrated using Renin Substrate Standard (SCIEX), over the m/z range 100-2000. Protein/inhibitor samples were thawed and 2 μL volumes injected into a liquid chromatography (LC) BIOshell™ A400 Protein C4 HPLC column (10 cm×2.1 mm, 3.4 μm) attached to the mass spectrometer. […] Following elution, samples were directly injected into the mass spectrometer for separation and mass analysis. Mass spectrometry data were processed and analysed using the PeakView™ 2.1 software and the Bio Tool Kit plug-in (SCIEX) and covered an m/z range of 330-1600. Deconvolution calculations allowed visualisation of intact mass protein peaks and allowed peak area measurement to assess the percentage of protein covalently modified by each inhibitor at each time point. Data was plotted using GraphPad Prism 7 (GraphPad).

[2] = test system: FGFR2 in SUM52 cells (phospho-ERK1/2); test: Drug washout Western blot assay, SUM52 cells; type: cell-based; details: for inhibition of phosphorylation of ERK1/2, no washout / phospho-ERK1/2 after extensive drug washout: 30 min; for inhibition of phosphorylation of ERK1/2, no washout: then FGF-stimulation; for phospho-ERK1/2 after extensive drug washout: washout prior to FGF-stimulation
Method: Cells were seeded on the day prior to drug treatment (1 million cells/well; 6-well plate).
Drug stocks were prepared in media using 1 mM or 10 mM DMSO stock solutions. Media was aspirated from each well and replaced with 2 ml of drug-free media for control wells or 2 ml of diluted drug for treated wells. Cells were exposed to drug for 30 min. Recombinant FGF (50 ng/well) was added to each well 15 minutes prior to the end of the drug exposure and protein was extracted as below.
Cells were exposed to drug for 30 min as above. Media was aspirated and each well was washed with 5 ml drug-free media. The wash media was aspirated and replaced with 2 ml drug-free media and cells incubated for a further 30 minutes, after which the wash protocol was repeated. Cells were incubated for a further 90 minutes in drug-free media. Recombinant FGF (50 ng/well) was added to each well 15 minutes prior to the end of the drug-free incubation and protein was extracted as below.
Cell lysates were prepared in 250 μL of RIPA lysis buffer containing protease inhibitor (1:100). After incubation on ice (30 min) and centrifugation (13,000 rpm, 5 min, 4° C.) the supernatants containing the proteins were stored (−20° C.) until required. Bicinchoninic acid (BCA) assay was used to determine the protein concentration of individual cell lysate samples.

[3] = test system: FGFR3 in SW780 cells (phospho-ERK1/2); test: Drug washout Western blot assay, SW780 cells; type: cell-based; details: for inhibition of phosphorylation of ERK1/2, no washout / phospho-ERK1/2 after extensive drug washout: 30 min; for inhibition of phosphorylation of ERK1/2, no washout: then FGF-stimulation; for phospho-ERK1/2 after extensive drug washout: washout prior to FGF-stimulation
[4] = test system: FGFR1-amplified H520 non-small cell lung cancer cells; test: Cell proliferation assay (SRB); type: cell-based; details: Homo sapiens, NCI-H520, 168 h, read-out: Cellular Anti-proliferative IC50, H520
[5] = test system: FGFR1 in H520 cells (phospho-ERK1/2); test: Drug washout Western blot assay, H520 cells; type: cell-based; details: for phospho-ERK1/2 after extensive drug washout: washout prior to FGF-stimulation
[6] = test system: FGFR2-amplified SUM52 breast cancer cells; test: Cell proliferation assay (SRB); type: cell-based; details: SUM52, 120 h, read-out: Cellular Anti-proliferative IC50, SUM52, 5 days drug exposure
[7] = test system: FGFR4-amplified Hep3B hepatocellular carcinoma cells; test: Cell proliferation assay (SRB); type: cell-based; details: Homo sapiens, Hep3B; read-out: Cellular Anti-proliferative IC50, Hep3B
[8] = test system: FGFR3-amplified SW780 bladder cancer cells; test: Cell proliferation assay (SRB); details: Homo sapiens, SW780, 120 h
[9] = biological target: T2, FGFR2 (Homo sapiens, UniProt P21802); test: Isolated enzyme FRET-based Z-Lyte kinase inhibition assay; type: biochemical; details: means from 3 independent experiments; read-out: Isolate Enzyme Inhibition IC50, FGFR2
T2 construct: purchased Invitrogen
Method: (§1) FGFR1-4 and the Z-Lyte Kinase Assay Kit were purchased from Invitrogen. The concentration gradients from 5.1×10^−11 to 1.0×10^−6 mol/L were used for all the test compounds. The experiments were performed according to the instructions of the manufacturer.
(§2) FGFR1-4 isolated enzyme activity was determined using the FRET-based Z-Lyte kinase inhibition assay. The data are the means from 3 independent experiments.

[10] = biological target: T3, FGFR1 (Homo sapiens, UniProt P11362); test: as above; type: biochemical; details: means from 3 independent experiments; read-out: Isolate Enzyme Inhibition IC50, FGFR1
T3 construct: purchased Invitrogen
Method: as §1, §2

[11] = biological target: T4, FGFR3 (Homo sapiens, UniProt P22607); test: as above; type: biochemical; details: means from 3 independent experiments; read-out: Isolate Enzyme Inhibition IC50, FGFR3
T4 construct: purchased Invitrogen
Method: as §1, §2

[12] = biological target: T5, FGFR4 (Homo sapiens, UniProt P22455); test: as above; type: biochemical; details: means from 3 independent experiments; read-out: Isolate Enzyme Inhibition IC50, FGFR4
T5 construct: purchased Invitrogen
Method: as §1, §2

[13] = read-out: Cellular Anti-proliferative IC50, SW780, 5 days drug exposure

T4 sequence (P22607 23-806): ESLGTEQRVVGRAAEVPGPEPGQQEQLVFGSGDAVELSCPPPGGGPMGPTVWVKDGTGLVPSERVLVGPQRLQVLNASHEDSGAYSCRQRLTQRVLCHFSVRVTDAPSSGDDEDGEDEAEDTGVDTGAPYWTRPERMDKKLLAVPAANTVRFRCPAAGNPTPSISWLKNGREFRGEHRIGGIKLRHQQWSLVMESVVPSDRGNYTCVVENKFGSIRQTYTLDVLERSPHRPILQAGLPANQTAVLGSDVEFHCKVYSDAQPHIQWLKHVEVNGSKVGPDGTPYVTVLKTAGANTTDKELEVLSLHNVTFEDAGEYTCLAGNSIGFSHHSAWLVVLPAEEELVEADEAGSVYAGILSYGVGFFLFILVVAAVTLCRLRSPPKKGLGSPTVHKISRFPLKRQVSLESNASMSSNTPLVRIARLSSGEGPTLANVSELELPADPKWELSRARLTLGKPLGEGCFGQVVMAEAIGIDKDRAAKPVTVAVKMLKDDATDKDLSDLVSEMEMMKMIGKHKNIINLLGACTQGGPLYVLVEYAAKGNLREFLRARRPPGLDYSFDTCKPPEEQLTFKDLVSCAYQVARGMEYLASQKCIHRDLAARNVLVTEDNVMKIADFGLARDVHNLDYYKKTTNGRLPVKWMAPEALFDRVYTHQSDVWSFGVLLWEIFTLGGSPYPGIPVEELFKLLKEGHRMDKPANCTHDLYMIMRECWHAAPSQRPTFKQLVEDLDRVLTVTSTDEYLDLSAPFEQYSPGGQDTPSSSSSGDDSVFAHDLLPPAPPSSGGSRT
T2 sequence (P21802 22-821): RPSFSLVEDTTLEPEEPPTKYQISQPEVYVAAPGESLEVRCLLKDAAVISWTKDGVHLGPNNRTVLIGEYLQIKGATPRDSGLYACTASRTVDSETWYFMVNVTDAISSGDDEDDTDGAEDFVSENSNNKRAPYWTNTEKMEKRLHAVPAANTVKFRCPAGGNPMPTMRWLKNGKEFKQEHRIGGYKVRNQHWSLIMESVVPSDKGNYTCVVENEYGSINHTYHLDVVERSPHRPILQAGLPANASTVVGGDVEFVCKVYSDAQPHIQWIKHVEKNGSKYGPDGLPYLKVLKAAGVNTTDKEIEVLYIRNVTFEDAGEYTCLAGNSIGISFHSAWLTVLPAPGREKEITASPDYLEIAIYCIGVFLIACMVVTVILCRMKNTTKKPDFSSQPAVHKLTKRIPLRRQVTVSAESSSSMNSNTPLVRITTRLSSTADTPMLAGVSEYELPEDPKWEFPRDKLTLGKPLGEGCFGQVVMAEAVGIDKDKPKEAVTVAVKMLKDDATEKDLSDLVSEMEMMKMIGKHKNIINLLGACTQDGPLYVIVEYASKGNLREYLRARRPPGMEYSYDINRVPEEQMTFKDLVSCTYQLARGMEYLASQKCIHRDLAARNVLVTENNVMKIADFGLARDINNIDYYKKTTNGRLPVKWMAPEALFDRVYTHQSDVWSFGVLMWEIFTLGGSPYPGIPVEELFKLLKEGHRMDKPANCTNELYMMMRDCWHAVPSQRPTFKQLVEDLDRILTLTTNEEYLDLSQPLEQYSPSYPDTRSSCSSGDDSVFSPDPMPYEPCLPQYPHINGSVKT
T1 sequence (P11362 with tags, fused parts or gaps C584S): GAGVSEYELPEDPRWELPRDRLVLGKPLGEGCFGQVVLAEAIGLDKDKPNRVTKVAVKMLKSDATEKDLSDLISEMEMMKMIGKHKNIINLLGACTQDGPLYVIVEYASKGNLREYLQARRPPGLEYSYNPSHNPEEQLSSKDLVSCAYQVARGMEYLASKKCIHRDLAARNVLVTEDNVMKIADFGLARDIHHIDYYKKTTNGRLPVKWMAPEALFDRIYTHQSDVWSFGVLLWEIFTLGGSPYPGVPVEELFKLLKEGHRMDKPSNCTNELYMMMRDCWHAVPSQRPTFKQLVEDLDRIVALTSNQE
T5 sequence (P22455 22-802): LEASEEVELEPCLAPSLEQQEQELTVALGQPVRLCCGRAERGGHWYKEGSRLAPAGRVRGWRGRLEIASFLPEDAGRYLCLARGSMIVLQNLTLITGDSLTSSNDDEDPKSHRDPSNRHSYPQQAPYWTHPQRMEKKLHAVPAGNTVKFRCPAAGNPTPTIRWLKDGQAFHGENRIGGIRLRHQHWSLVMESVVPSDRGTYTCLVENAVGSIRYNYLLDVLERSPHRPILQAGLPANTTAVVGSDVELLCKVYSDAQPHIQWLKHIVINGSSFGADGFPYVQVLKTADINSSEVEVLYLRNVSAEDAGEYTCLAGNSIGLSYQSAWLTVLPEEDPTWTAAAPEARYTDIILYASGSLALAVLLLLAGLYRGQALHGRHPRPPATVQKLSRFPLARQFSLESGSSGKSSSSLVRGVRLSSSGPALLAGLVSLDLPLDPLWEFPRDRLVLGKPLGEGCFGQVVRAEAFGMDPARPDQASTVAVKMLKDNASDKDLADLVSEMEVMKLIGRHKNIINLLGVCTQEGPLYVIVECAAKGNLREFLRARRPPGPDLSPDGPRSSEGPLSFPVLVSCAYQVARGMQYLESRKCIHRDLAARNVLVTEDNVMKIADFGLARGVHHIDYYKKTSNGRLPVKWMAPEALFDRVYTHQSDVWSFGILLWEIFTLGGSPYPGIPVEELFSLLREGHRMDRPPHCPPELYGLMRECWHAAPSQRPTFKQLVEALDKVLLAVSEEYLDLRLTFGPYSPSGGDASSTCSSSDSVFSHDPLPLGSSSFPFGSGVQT
T3 sequence (P11362 22-822): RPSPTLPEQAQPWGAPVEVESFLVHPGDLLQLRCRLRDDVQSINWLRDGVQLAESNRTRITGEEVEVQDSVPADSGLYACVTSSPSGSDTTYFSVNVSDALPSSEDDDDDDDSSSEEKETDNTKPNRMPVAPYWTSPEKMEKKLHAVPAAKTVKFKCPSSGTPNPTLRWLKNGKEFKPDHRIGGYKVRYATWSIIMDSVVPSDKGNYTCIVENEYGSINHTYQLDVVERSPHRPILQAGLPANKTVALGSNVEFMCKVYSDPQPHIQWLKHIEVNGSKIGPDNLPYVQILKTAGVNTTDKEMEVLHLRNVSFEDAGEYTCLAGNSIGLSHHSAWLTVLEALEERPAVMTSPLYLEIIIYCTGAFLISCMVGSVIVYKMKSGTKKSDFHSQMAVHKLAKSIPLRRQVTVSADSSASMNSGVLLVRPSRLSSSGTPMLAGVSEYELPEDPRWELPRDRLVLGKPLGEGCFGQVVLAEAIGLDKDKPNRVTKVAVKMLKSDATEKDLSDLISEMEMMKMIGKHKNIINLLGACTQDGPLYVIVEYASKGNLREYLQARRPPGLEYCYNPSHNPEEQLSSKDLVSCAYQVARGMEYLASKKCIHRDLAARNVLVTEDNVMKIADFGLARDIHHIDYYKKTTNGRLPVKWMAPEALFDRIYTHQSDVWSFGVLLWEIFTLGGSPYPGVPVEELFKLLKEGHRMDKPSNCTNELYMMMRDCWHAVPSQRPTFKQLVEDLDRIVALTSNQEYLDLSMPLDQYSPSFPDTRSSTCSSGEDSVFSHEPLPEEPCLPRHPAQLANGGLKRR

## COc1cc(OC)c(Cl)c(N2Cc3cnc(Nc4ccc(N5CCOCC5)cc4)nc3N(C3CCN(C(=O)/C=C/CN(C)C)CC3)C2=O)c1 [Compound 130, (E)-3-(2-chloro-3,5-dimethoxyphenyl)-1-(1-(4-(dimethylamino)but-2-enoyl)piperidin-4-yl)-7-((4-morpholinophenyl)amino)-3,4-dihydropyrimido[4,5-d]pyrimidin-2(1H)-one]
[1]
  % Conversion to FGFR1 (C584S) covalent adduct after 120 minutes incubation: 46%

## COc1cc(OC)c(Cl)c(N2Cc3cnc(NC4CCCCC4)nc3N([C@H]3CCN(C(=O)/C=C/CN(C)C)C3)C2=O)c1Cl [Compound 105, (S,E)-7-(cyclohexylamino)-3-(2,6-dichloro-3,5-dimethoxyphenyl)-1-(1-(4-(dimethylamino)but-2-enoyl)pyrrolidin-3-yl)-3,4-dihydropyrimido[4,5-d]pyrimidin-2(1H)-one]
[1]
  % Conversion to FGFR1 (C584S) covalent adduct after 120 minutes incubation: 8%
[2]; SUM52 (FGFR2), 30 minute exposure
  exposure concentration for irreversible inhibition (fully covalently bind the target) in cells: 1000 nM
[2]; SUM52, 100 nM
  inhibition of phosphorylation of ERK1/2, no washout: complete inhibition
  phospho-ERK1/2 after extensive drug washout: remained inhibited
[2]; SUM52, 1000 nM
  phospho-ERK1/2 after extensive drug washout: essential full inhibition
[3]; SW780 (FGFR3), 30 minute exposure
  exposure concentration for irreversible inhibition (fully covalently bind the target) in cells: 1000 nM
[3]; SW780, 100 nM
  inhibition of phosphorylation of ERK1/2, no washout: complete inhibition
  phospho-ERK1/2 after extensive drug washout: fully restored
[3]; SW780, 1000 nM
  phospho-ERK1/2 after extensive drug washout: essential full inhibition
[4]
  IC50: 68 nM
[5]; H520 (FGFR1), 30 minute exposure
  exposure concentration for irreversible inhibition (fully covalently bind the target) in cells: 1000 nM
[5]; H520, 100 nM, 30 min, then FGF-stimulation
  inhibition of phosphorylation of ERK1/2, no washout: complete inhibition
[5]; H520, 100 nM, 30 min
  phospho-ERK1/2 after extensive drug washout: partially inhibited
[5]; H520, 1000 nM, 30 min
  phospho-ERK1/2 after extensive drug washout: essential full inhibition
[6]
  IC50: 2.1 nM
[7]
  IC50: 80 nM
[8]; read-out: Cellular Anti-proliferative IC50, SW780
  IC50: 4 nM
[9]
  IC50: 16 nM
[10]
  IC50: 1.2 nM
[11]
  IC50: 33 nM
[12]
  IC50: 729 nM

## COc1cc(OC)c(Cl)c(N2Cc3cnc(Nc4ccccc4)nc3N(C3CCN(C(=O)/C=C/CN(C)C)CC3)C2=O)c1 [Compound 128, (E)-3-(2-chloro-3,5-dimethoxyphenyl)-1-(1-(4-(dimethylamino)but-2-enoyl)piperidin-4-yl)-7-(phenylamino)-3,4-dihydropyrimido[4,5-d]pyrimidin-2(1H)-one]
[1]
  % Conversion to FGFR1 (C584S) covalent adduct after 120 minutes incubation: 48%

## CNc1ncc2c(n1)N([C@@H]1CCN(C(=O)/C=C/CN(C)C)C1)C(=O)N(c1c(Cl)c(OC)cc(OC)c1Cl)C2 [Compound 102, (R,E)-3-(2,6-dichloro-3,5-dimethoxyphenyl)-1-(1-(4-(dimethylamino)but-2-enoyl)pyrrolidin-3-yl)-7-(methylamino)-3,4-dihydropyrimido[4,5-d]pyrimidin-2(1H)-one]
[6]
  IC50: 51 nM
[7]
  IC50: 1430 nM
[8]; [13]
  IC50: 700 nM
[9]
  IC50: 15 nM
[11]
  IC50: 703 nM
[12]
  IC50: > 1000 nM

## CNc1ncc2c(n1)N([C@H]1CCN(C(=O)/C=C/CN(C)C)C1)C(=O)N(c1c(Cl)c(OC)cc(OC)c1Cl)C2 [Compound 103, (S,E)-3-(2,6-dichloro-3,5-dimethoxyphenyl)-1-(1-(4-(dimethylamino)but-2-enoyl)pyrrolidin-3-yl)-7-(methylamino)-3,4-dihydropyrimido[4,5-d]pyrimidin-2(1H)-one]
[2]; SUM52, 100 nM
  inhibition of phosphorylation of ERK1/2, no washout: complete inhibition
  phospho-ERK1/2 after extensive drug washout: restoration
[2]; SUM52, 1000 nM
  phospho-ERK1/2 after extensive drug washout: restoration
[2]; SUM52, 30 min exposure, 100 nM, with and without washout
  reversible or irreversible inhibition of FGFR2 in cells: reversible inhibitor
[3]; SW780, 100 nM
  inhibition of phosphorylation of ERK1/2, no washout: complete inhibition
  phospho-ERK1/2 after extensive drug washout: restoration
[3]; SW780, 1000 nM
  phospho-ERK1/2 after extensive drug washout: restoration
[3]; SW780, 30 min exposure, 100 nM, with and without washout
  reversible or irreversible inhibition of FGFR3 in cells: reversible inhibitor
[5]; H520, 100 nM, 30 min
  phospho-ERK1/2 after extensive drug washout: restoration
[5]; H520, 1000 nM, 30 min
  phospho-ERK1/2 after extensive drug washout: restoration
[6]
  IC50: 4.8 nM
[7]
  IC50: 48 nM
[8]; [13]
  IC50: 31 nM
[9]
  IC50: 3.3 nM
[11]
  IC50: 17 nM
[12]
  IC50: 287 nM

## COc1cc(OC)cc(N2Cc3cnc(Nc4ccc(N5CCOCC5)cc4)nc3N(C3CCN(C(=O)/C=C/CN(C)C)CC3)C2=O)c1 [Compound 131, (E)-3-(3,5-dimethoxyphenyl)-1-(1-(4-(dimethylamino)but-2-enoyl)piperidin-4-yl)-7-((4-morpholinophenyl)amino)-3,4-dihydropyrimido[4,5-d]pyrimidin-2(1H)-one]
[1]
  % Conversion to FGFR1 (C584S) covalent adduct after 120 minutes incubation: 39%

## COc1cc(OC)c(Cl)c(N2Cc3cnc(Nc4ccc(N5CCOCC5)cc4)nc3N(C3CCN(C(=O)/C=C/CN(C)C)CC3)C2=O)c1Cl [Compound 129, (E)-3-(2,6-dichloro-3,5-dimethoxyphenyl)-1-(1-(4-(dimethylamino)but-2-enoyl)piperidin-4-yl)-7-((4-morpholinophenyl)amino)-3,4-dihydropyrimido[4,5-d]pyrimidin-2(1H)-one]
[1]
  % Conversion to FGFR1 (C584S) covalent adduct after 120 minutes incubation: 46%
